The subject of test [1] is primary human mesenchymal stem cells (hMSCs). In words: Induction of chondrogenesis in primary human mesenchymal stem cells (nodule imaging, Rhodamine B/Nile Red). The format is cell-based. As to conditions: hMSC chondrogenesis; for Emax: TGF-β3 as positive control, read-out: Max. Activity as % TGF-β3 activity; for EC50: concentration required to induce 50% levels of chondrogenesis vs TGF-β3, read-out: Conc (nM) of 50% TGF-β3 activity. Here is the method:
Representative compounds were screened using primary human mesenchymal stem cells (hMSCs) to determine their ability to induce chondrogenesis (process by which cartilage is developed).
Primary human mesenchymal stem cells (hMSCs) were purchased from Lonza (Walkersville, Md.) and expanded in Mesenchymal Stem Cell Growth Media (Lonza). Cells between passage 3 and 6 were used for the experiments.
Each compound was dissolved in DMSO as a 10 mM stock and used to prepare compound source plates. For the 96 well assay, serial dilution (1:3, 6-point dose-response curves from 2700 nM to 10 nM) and compound transfer was performed using the ECHO 550 (Labcyte, Sunnyvale, Calif.) into 96-well clear bottom assay plates (Greiner Bio-One) with appropriate DMSO backfill for a final DMSO concentration of 0.03%. hMSCs were plated at 20,000 cells/well in 250 μL/well Incomplete Chondrogenic Induction Medium (Lonza; DMEM, dexamethasone, ascorbate, insulin-transferrin-selenium [ITS supplement], gentamycin-amphotericin [GA-1000], sodium pyruvate, proline and L-glutamine). TGF-−3 (10 ng/mL) was used as a positive control for differentiation while negative control wells were treated with 75 nL DMSO for normalization and calculating EC50 values. For the 384 well assay, serial dilution (1:3, 8-point dose-response curves from 5000 nM to 2.2 nM) and compound transfer was performed using the ECHO 550 (Labcyte, Sunnyvale, Calif.) into 384-well clear bottom assay plates (Greiner Bio-One) with appropriate DMSO backfill for a final DMSO concentration of 0.03%. hMSCs were plated at 8,000 cells/well in 80 μL/well Incomplete Chondrogenic Induction Medium (Lonza; DMEM, dexamethasone, ascorbate, insulin-transferrin-selenium [ITS supplement], gentamycin-amphotericin [GA-1000], sodium pyruvate, proline and L-glutamine). TGF-β3 (10 ng/mL) was used as a positive control for differentiation while negative control wells were treated with 25 nL DMSO for normalization and calculating EC50 values. Cells were incubated at 37° C. and 5% CO2 for 6 days. To image chondrogenic nodules, the cells were fixed using 4% formaldehyde (Electron Microscopy Sciences), and stained with 2 μg/mL Rhodamine B (Sigma-Aldrich) and 20 μM Nile Red (Sigma-Aldrich) [Johnson K., et. al, A Stem Cell-Based Approach to Cartilage Repair, Science, (2012), 336(6082), 717-721]. The nodules imaged (25 images per well for 96 well plates and 9 images per well for 384 well plates at 10× magnification) by excitation at 531 nm and emission at 625 nm and quantified using the CellInsight CX5 (Thermo Scientific). Area of nodules in each well was normalized to the average of 3 DMSO treated wells on the same plate using Excel (Microsoft Inc.). The normalized averages (fold change over DMSO) of 2 or 3 replicate wells for each compound concentration were calculated. Due to solubility limitations of some of the compounds, curve fitting was incomplete leading to inaccurate EC50 determinations.
Using TGF-β3 as a positive control, the concentration of representative compounds required to induce 50% levels of chondrogenesis is reported. In addition, the maximum activity of each compound and the respective dose that each compound reached maximum chondrogenesis activity is reported.

Test [2] has as its system Wnt activity (Sp5-Luc reporter, SW480 colon carcinoma cells). The test is described as follows: Screening assay for Wnt activity: Sp5-Luc reporter gene assay in SW480 cells. It counts as cell-based. Conditions: Homo sapiens; for inhibition at 10 µM: 10 μM compound, read-out: percent inhibition at 10 μM (given for EC50 of >10 μM); for EC50: overnight incubation, 10-point dose-response from 10 μM. In a few lines:
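Luminescence (BrightGlo) read after overnight 37 °C exposure of Sp5-Luc SW480 reporter cells, 4,000/well in 1% FBS, to compound dosed 1:3 over 10 points from 10 μM with 0.1% DMSO. Values normalized to DMSO-only cells, fitted with variable-slope four-parameter model; where EC50 exceeds 10 μM, % inhibition at 10 μM reported.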
Background: Reporter assays use an easily measured gene product as a stand-in for the process of interest.

Regarding `Fc1cccc(-c2ccnc3[nH]c(-c4n[nH]c5ccc(C6CCNCC6)nc45)nc23)c1` [Compound 505, 3-(7-(3-fluorophenyl)-3H-imidazo[4,5-b]pyridin-2-yl)-5-(piperidin-4-yl)-1H-pyrazolo[4,3-b]pyridine], in test [1], the Emax was found to be 51% and the EC50 is 10 nM. Further, in test [2], the inhibition (usually how much of the control response was suppressed) at 10 µM was found to be 16% and the EC50 is greater than 10000 nM.
As for `Fc1cccc(-c2ccnc3[nH]c(-c4n[nH]c5ccc(-c6cn[nH]c6)nc45)nc23)c1` [Compound 507, 3-(7-(3-fluorophenyl)-3H-imidazo[4,5-b]pyridin-2-yl)-5-(1H-pyrazol-4-yl)-1H-pyrazolo[4,3-b]pyridine], in test [1], the Emax amounted to 57% and the EC50 stood at 7 nM. Also, in test [2], the inhibition at 10 µM amounted to 17% and the EC50 was greater than 10000 nM.
As for `Cn1cc(-c2ccc3[nH]nc(-c4nc5c(-c6cccc(F)c6)ccnc5[nH]4)c3n2)cn1` [Compound 508, 3-(7-(3-fluorophenyl)-3H-imidazo[4,5-b]pyridin-2-yl)-5-(1-methyl-1H-pyrazol-4-yl)-1H-pyrazolo[4,3-b]pyridine], the Emax in test [1] is 43%. Moreover, in test [2], the inhibition at 10 µM was 41% and the EC50 is greater than 10000 nM.
Consider `Fc1cccc(-c2ccnc3[nH]c(-c4n[nH]c5ccc(-c6cncc(OC7CCNCC7)c6)nc45)nc23)c1` [Compound 512, 3-(7-(3-fluorophenyl)-3H-imidazo[4,5-b]pyridin-2-yl)-5-(5-(piperidin-4-yloxy)pyridin-3-yl)-1H-pyrazolo[4,3-b]pyridine], for which, in test [1], the Emax turned out to be 93% and the EC50 was 2 nM. In test [2], the inhibition at 10 µM was 45% and the EC50 is greater than 10000 nM.

The values are drawn from patent US10329309B2, “3-(3H-imidazo[4,5-B]pyridin-2-yl)-1H-pyrazolo[4,3-B]pyridines and therapeutic uses thereof” (Samumed, LLC, priority 2015, dated 2019).
